# Columns and labels:
# [1] = tested on: human lung cancer cell NCI-H460; assay: Tumor cell viability by MTT assay; format: cell-based; details: Homo sapiens, NCI-H460, 96 h
# Experimental: After 24 hours, 100 μL of fresh medium containing different concentrations of test compounds and the corresponding solvent control was added into each well to a final concentration of DMSO less than 0.2%. Six to nine concentration groups were set for each test compound, and three parallel wells were set for each group. The plate was incubated at 5% CO2, 37° C. for 96 hours. 20 μL of freshly prepared PBS solution containing 5 mg/mL MTT was added to each well. The supernatant was discarded after incubation for another 4 hours. 150 μL DMSO was added to each well to dissolve the MTT formazan precipitate. After being mixed by a micro-oscillator, the optical density (OD) was measured at the wavelength of 570 nm, and the tumor cells treated with DMSO were used as a control group.
# PI3Kα = PI3Kα (Homo sapiens (Human), UniProt P42336); assay: Biochemical evaluation of activity of PI3Kα (Kinase-Glo luminescence kinase assay); details: 25 μM ATP, 50 μM PIP2, 1 h at room temperature
# Experimental: The potency of compounds in the present intention against PI3Kα was assessed by in vitro kinase assay. The kinase activity of PI3Kα was determined by detecting the level of ADP produced in the kinase reaction with luciferase-based luminescence detection.
# The Kinase-Glo™ Kinase Assay Kit was purchased from Promega. All assays were performed at room temperature using white OptiPlate™-384 well plate. The PI3Kα kinase was purchased from Invitrogen. The substrate was PIP2 from Invitrogen. The kinase buffer contained 50 mM Hepes (pH 7.5), 3 mM MgCl2, 100 mM NaCl, 1 mM EGTA, 0.03% CHAPS and 2 mM DTT. […] The substrate solution contained 100 μM PIP2 and 50 μM ATP. The test compound was diluted to 10 mM in 100% DMSO and serially diluted three times into ten different concentrations in 100% DMSO. The compound diluted in 100% DMSO was diluted 25-fold in 1×kinase buffer. 2.5 μL of the diluted compound solution and 2.5 μL PI3Kα kinase solution were added to each well of a 384-well plate. The reaction was initiated by addition of 5 μL substrate solution to each well. […] The plate was then covered and the reaction was allowed to proceed for one hour at room temperature, followed by the addition of 10 μL Kinase-Glo™ reagent to each well to stop the reaction.
# The percentage of inhibition was calculated as follows: Inhibition %=100−(max−sample RLU)/(max−min)*100
# wherein sample RLU was the luminescence reading for a given compound concentration, min was the reading of DMSO control, and max was the reading of the enzyme-free control. The IC50 value was calculated with the XLfit program in Excel.
# Sequence of PI3Kα (P42336 whole entry): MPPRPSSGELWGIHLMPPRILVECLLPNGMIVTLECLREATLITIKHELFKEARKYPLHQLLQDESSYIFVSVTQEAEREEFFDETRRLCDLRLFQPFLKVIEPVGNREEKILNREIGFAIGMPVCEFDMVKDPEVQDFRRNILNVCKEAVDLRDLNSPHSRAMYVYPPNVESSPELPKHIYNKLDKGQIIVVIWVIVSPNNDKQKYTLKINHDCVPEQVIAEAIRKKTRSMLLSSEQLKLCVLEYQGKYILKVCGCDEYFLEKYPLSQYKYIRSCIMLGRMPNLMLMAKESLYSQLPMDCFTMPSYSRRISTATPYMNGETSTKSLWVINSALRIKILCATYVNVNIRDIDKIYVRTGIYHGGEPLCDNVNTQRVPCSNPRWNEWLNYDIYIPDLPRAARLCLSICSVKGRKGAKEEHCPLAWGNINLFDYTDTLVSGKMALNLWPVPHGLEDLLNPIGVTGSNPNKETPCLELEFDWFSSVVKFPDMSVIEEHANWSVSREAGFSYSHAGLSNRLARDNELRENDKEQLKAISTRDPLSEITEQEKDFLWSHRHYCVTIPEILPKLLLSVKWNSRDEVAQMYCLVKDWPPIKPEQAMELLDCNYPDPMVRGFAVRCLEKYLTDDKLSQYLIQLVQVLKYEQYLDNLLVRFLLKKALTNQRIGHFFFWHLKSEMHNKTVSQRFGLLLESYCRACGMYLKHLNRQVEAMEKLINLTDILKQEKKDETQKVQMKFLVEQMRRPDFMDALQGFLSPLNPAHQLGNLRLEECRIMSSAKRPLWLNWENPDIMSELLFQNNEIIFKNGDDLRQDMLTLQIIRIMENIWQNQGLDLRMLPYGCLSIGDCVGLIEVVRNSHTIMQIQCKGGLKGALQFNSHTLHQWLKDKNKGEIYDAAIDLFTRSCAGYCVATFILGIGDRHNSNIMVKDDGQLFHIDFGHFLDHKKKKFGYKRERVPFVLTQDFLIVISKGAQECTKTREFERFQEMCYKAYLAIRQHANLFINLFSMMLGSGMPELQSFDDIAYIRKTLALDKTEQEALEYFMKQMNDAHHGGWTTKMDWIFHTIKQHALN
# Sequence of PI3Kα (P27986 whole entry partner): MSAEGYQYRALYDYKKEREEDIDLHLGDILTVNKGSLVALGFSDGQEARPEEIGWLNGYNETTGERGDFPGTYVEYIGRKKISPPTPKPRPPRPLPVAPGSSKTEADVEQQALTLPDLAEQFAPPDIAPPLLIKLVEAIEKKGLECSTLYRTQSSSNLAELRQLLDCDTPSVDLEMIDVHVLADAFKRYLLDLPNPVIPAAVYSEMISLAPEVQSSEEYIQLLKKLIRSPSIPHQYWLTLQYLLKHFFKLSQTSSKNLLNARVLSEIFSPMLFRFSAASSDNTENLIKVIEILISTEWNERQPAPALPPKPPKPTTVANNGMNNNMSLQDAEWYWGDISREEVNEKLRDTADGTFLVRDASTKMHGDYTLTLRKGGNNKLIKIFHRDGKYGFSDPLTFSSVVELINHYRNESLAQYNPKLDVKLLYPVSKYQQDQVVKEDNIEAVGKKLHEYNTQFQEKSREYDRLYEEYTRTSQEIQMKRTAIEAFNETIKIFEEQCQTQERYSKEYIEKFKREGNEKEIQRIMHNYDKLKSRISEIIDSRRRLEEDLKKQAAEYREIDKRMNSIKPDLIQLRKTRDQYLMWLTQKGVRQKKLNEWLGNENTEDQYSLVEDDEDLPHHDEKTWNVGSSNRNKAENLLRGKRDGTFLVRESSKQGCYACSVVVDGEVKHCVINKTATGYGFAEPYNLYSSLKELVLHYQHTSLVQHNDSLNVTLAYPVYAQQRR
IC50 [1],IC50 (PI3Kα),Structure (SMILES)
21 nM,0.84 nM,"COc1ncc(-c2cc(OCC3CCOCC3)c3nc(N)nc(C)c3c2)cc1NS(=O)(=O)c1ccc(F)cc1F [Example 13, N-(5-(2-amino-4-methyl-8-((tetrahydro-2H-pyran-4-yl)methoxy)quinazolin-6-yl)-2-methoxypyridin-3-yl)-2,4-difluorobenzenesulfonamide]"
2000 nM,3.3 nM,"COc1ncc(-c2cc(OCC3CCOCC3)c3nc(N)nc(C)c3c2)cc1NS(C)(=O)=O [Example 14, N-(5-(2-amino-4-methyl-8-((tetrahydro-2H-pyran-4-yl)methoxy)quinazolin-6-yl)-2-methoxypyridin-3-yl)methanesulfonamide]"
660 nM,5.5 nM,"COc1ncc(-c2cc(OC3CCN(C)CC3)c3nc(N)nc(C)c3c2)cc1NS(=O)(=O)c1ccc(F)cc1F [Example 15, N-(5-(2-amino-4-methyl-8-((1-methylpiperidin-4-yl)oxy)quinazolin-6-yl)-2-methoxypyridin-3-yl)-2,4-difluorobenzenesulfonamide]"
1100 nM,4.1 nM,"COc1ncc(-c2cc(OCCN3CCOCC3)c3nc(N)nc(C)c3c2)cc1NS(=O)(=O)c1ccc(F)cc1F [Example 16, N-(5-(2-amino-4-methyl-8-(2-morpholinoethoxy)quinazolin-6-yl)-2-methoxypyridin-3-yl)-2,4-difluorobenzenesulfonamide]"
83 nM,2.3 nM,"COc1ncc(-c2cc(OC3CCC(F)(F)CC3)c3nc(N)nc(C)c3c2)cc1NS(=O)(=O)c1ccc(F)cc1F [Example 17, N-(5-(2-amino-8-((4,4-difluorocyclohexyl)oxy)-4-methylquinazolin-6-yl)-2-methoxypyridin-3-yl)-2,4-difluorobenzenesulfonamide]"
96 nM,0.6 nM,"COc1ncc(-c2cc(OC3CCCCC3)c3nc(N)nc(C)c3c2)cc1NS(=O)(=O)c1ccc(F)cc1F [Example 22, N-(5-(2-amino-8-(cyclohexyloxy)-4-methylquinazolin-6-yl)-2-methoxypyridin-3-yl)-2,4-difluorobenzenesulfonamide]"
200 nM,1.6 nM,"COCCOc1cc(-c2cnc(OC)c(NS(=O)(=O)c3ccc(F)cc3F)c2)cc2c(C)nc(N)nc12 [Example 25, N-(5-(2-amino-8-(2-methoxyethoxy)-4-methylquinazolin-6-yl)-2-methoxypyridin-3-yl)-2,4-difluorobenzenesulfonamide]"
140 nM,0.79 nM,"COc1ncc(-c2cc(OC(C)C)c3nc(N)nc(C)c3c2)cc1NS(=O)(=O)c1ccc(F)cc1F [Example 26, N-(5-(2-amino-8-isopropoxy-4-methylquinazolin-6-yl)-2-methoxypyridin-3-yl)-2,4-difluorobenzenesulfonamide]"
200 nM,1.7 nM,"COc1ncc(-c2cc(OCC3CC3)c3nc(N)nc(C)c3c2)cc1NS(=O)(=O)c1ccc(F)cc1F [Example 27, N-(5-(2-amino-8-(cyclopropylmethoxy)-4-methylquinazolin-6-yl)-2-methoxypyridin-3-yl)-2,4-difluorobenzenesulfonamide]"
280 nM,1.2 nM,"COc1ncc(-c2cc(OC)c3nc(N)nc(C)c3c2)cc1NS(=O)(=O)c1ccc(F)cc1F [Example 28, N-(5-(2-amino-8-methoxy-4-methylquinazolin-6-yl)-2-methoxypyridin-3-yl)-2,4-difluorobenzenesulfonamide]"
59 nM,1.1 nM,"CNc1nc(C)c2cc(-c3cnc(OC)c(NS(=O)(=O)c4ccc(F)cc4F)c3)cc(OC3CCOCC3)c2n1 [Example 29, N-(2-methoxy-5-(4-methyl-2-(methylamino)-8-((tetrahydro-2H-pyran-4-yl)oxy)quinazolin-6-yl)pyridin-3-yl)-2,4-difluorobenzenesulfonamide]"
240 nM,1.3 nM,"CCNc1nc(C)c2cc(-c3cnc(OC)c(NS(=O)(=O)c4ccc(F)cc4F)c3)cc(OC3CCOCC3)c2n1 [Example 30, N-(5-(2-(ethylamino)-4-methyl-8-((tetrahydro-2H-pyran-4-yl)oxy)quinazolin-6-yl)-2-methoxypyridin-3-yl)-2,4-difluorobenzenesulfonamide]"
410 nM,3.8 nM,"COc1ncc(-c2cc(OC3CCOCC3)c3nc(NCC4CC4)nc(C)c3c2)cc1NS(=O)(=O)c1ccc(F)cc1F [Example 31, N-(5-(2-((cyclopropylmethyl)amino)-4-methyl-8-((tetrahydro-2H-pyran-4-yl)oxy)quinazolin-6-yl)-2-methoxypyridin-3-yl)-2,4-difluorobenzenesulfonamide]"
100 nM,1.7 nM,"CNc1nc(C)c2cc(-c3cnc(OC)c(NS(=O)(=O)c4ccc(F)cc4Cl)c3)cc(O[C@@H]3CCOC3)c2n1 [Example 33, (R)—N-(2-methoxy-5-(4-methyl-2-(methylamino)-8-((tetrahydrofuran-3-yl)oxy)quinazolin-6-yl)pyridin-3-yl)-2-chloro-4-fluorobenzenesulfonamide]"
110 nM,1.6 nM,"CNc1nc(C)c2cc(-c3cnc(OC)c(NS(=O)(=O)c4ccc(Cl)s4)c3)cc(O[C@@H]3CCOC3)c2n1 [Example 34, (R)—N-(2-methoxy-5-(4-methyl-2-(methylamino)-8-((tetrahydrofuran-3-yl)oxy)quinazolin-6-yl)pyridin-3-yl)-5-chlorothiophene-2-sulfonamide]"
400 nM,2.2 nM,"CNc1nc(C)c2cc(-c3cnc(OC)c(NS(=O)(=O)c4ccc(F)cc4F)c3)cc(OCC3CCOCC3)c2n1 [Example 36, N-(2-methoxy-5-(4-methyl-2-(methylamino)-8-((tetrahydro-2H-pyran-4-yl)methoxy)quinazolin-6-yl)pyridin-3-yl)-2,4-difluoro-benzenesulfonamide]"
250 nM,2.3 nM,"CNc1nc(C)c2cc(-c3cnc(OC)c(NS(=O)(=O)c4ccc(F)cc4F)c3)cc(OC3CCOC(C)(C)C3)c2n1 (stereo not shown) [Example 37, N-(5-(8-((2,2-dimethyltetrahydro-2H-pyran-4-yl)oxy)-4-methyl-2-(methylamino)quinazolin-6-yl)-2-methoxypyridin-3-yl)-2,4-difluorobenzenesulfonamide]"
310 nM,2.3 nM,"CNc1nc(C)c2cc(-c3cnc(OC)c(NS(=O)(=O)c4ccc(F)cc4F)c3)cc(OCC3CCOC3)c2n1 (stereo not shown) [Example 38, N-(2-methoxy-5-(4-methyl-2-(methylamino)-8-((tetrahydrofuran-3-yl)methoxy)quinazolin-6-yl)pyridin-3-yl)-2,4-difluorobenzenesulfonamide]"
1700 nM,15 nM,"CNc1nc(C)c2cc(-c3cnc(OC)c(NS(=O)(=O)c4ccc(F)cc4F)c3)cc(OC3CCCCC3)c2n1 [Example 39, N-(5-(8-(cyclohexyloxy)-4-methyl-2-(methylamino)quinazolin-6-yl)-2-methoxypyridin-3-yl)-2,4-difluorobenzenesulfonamide]"
530 nM,1.1 nM,"COc1ncc(-c2cc(OC3CCOCC3)c3nc(NC(C)=O)nc(C)c3c2)cc1NS(=O)(=O)c1ccc(F)cc1F [Example 42, N-(6-(5-(2,4-difluorophenylsulfonamido)-6-methoxypyridin-3-yl)-4-methyl-8-((tetrahydro-2H-pyran-4-yl)oxy)quinazolin-2-yl)acetamide]"
4000 nM,10 nM,"COc1ncc(-c2cc(OC3CCOCC3)c3nc(NC(C)=O)nc(C)c3c2)cc1NS(C)(=O)=O [Example 43, N-(6-(6-methoxy-5-(methylsulfonamido)pyridin-3-yl)-4-methyl-8-((tetrahydro-2H-pyran-4-yl)oxy)quinazolin-2-yl)acetamide]"
45 nM,0.92 nM,"COc1ncc(-c2cc(OC3CCOCC3)c3ncnc(C)c3c2)cc1NS(=O)(=O)c1ccc(F)cc1Cl [Example 45, N-(2-methoxy-5-(4-methyl-8-((tetrahydro-2H-pyran-4-yl)oxy)quinazolin-6-yl)pyridin-3-yl)-2-chloro-4-fluorobenzenesulfonamide]"
29 nM,0.7 nM,"COc1ncc(-c2cc(OC3CCOCC3)c3ncnc(C)c3c2)cc1NS(=O)(=O)c1ccc(Cl)s1 [Example 46, N-(2-methoxy-5-(4-methyl-8-((tetrahydro-2H-pyran-4-yl)oxy)quinazolin-6-yl)pyridin-3-yl)-5-chlorothiophene-2-sulfonamide]"

# — patent US11534443B2, “Quinazoline compounds, preparation method, use, and pharmaceutical composition thereof” (INSTITUTE OF MATERIA MEDICA, CHINESE ACADEMY OF MEDICAL …, priority 2016, dated 2022)
